# Source: PubChem BioAssay (NCI)
#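 Briefly, cells in 96-well plates were exposed to five compound concentrations for 48 h, and endpoints were estimated by linear interpolation. GI50: concentration for 50% inhibition of growth. TGI is the concentration that stops growth completely.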
# Key:
# Assay in all cases: NCI anticancer screen, dose series, 48 h
# [1] = system: NCI-H522 lung
# [2] = system: UACC-62 melanoma
# [3] = system: 786-0 renal
# [4] = system: RPMI-8226 leukemia
# [5] = system: SW-620 colon
# [6] = system: MCF7 breast
# [7] = system: MALME-3M melanoma
# [8] = system: UACC-257 melanoma
# [9] = system: SF-268 CNS
# [10] = system: SN12C renal
# [11] = system: OVCAR-5 ovarian
# [12] = system: T-47D breast
# [13] = system: SK-MEL-2 melanoma
# [14] = system: SK-OV-3 ovarian
# [15] = system: CAKI-1 renal
# [16] = system: K-562 leukemia
# [17] = system: SNB-19 CNS
# [18] = system: OVCAR-4 ovarian
# [19] = system: HCT-15 colon
# [20] = system: DU-145 prostate
# [21] = system: MOLT-4 leukemia
# [22] = system: UO-31 renal
# [23] = system: HS 578T breast
# [24] = system: A498 renal
# [25] = system: HL-60(TB) leukemia
# [26] = system: NCI-H226 lung
# [27] = system: SK-MEL-5 melanoma
# [28] = system: EKVX NSCLC
# [29] = system: SF-539 CNS
# [30] = system: LOX IMVI melanoma
# [31] = system: OVCAR-3 ovarian
# [32] = system: A549 NSCLC
# [33] = system: NCI-H460 lung
# [34] = system: MDA-MB-435
# [35] = system: OVCAR-8 ovarian
# [36] = system: TK-10 renal
# [37] = system: SNB-75 CNS
# [38] = system: IGROV1 ovarian
# [39] = system: PC-3 prostate
# [40] = system: M14 melanoma
# [41] = system: SR leukemia
# [42] = system: SK-MEL-28 melanoma
# [43] = system: NCI/ADR-RES ovarian
# [44] = system: HCC-2998 colon
# [45] = system: SF-295 CNS
# [46] = system: CCRF-CEM leukemia
# [47] = system: NCI-H23 lung
# [48] = system: ACHN renal
# [49] = system: HCT-116 colon
# [50] = system: RXF 393 renal
# [51] = system: U251 CNS
# [52] = system: COLO 205 colon
# [53] = system: KM12 colon
# [54] = system: HOP-62 NSCLC
# [55] = system: MDA-MB-231 breast
# [56] = system: HT29 colon
# [57] = system: HOP-92 NSCLC
# [58] = system: BT-549 breast
compound,measurement,setting,value
COc1ccc2c(c1)/C(=N/OC(C)=O)c1c-2c(Nc2cccc(/C(C)=N/OC(C)=O)c2)nc2ccccc12,GI50,[1],35 µM
same,TGI,[1],> 100 µM
same,GI50,[2],> 100 µM
same,TGI,[2],> 100 µM
same,GI50,[3],37 µM
same,TGI,[3],> 100 µM
same,GI50,[4],64.6 µM
same,TGI,[4],> 100 µM
same,GI50,[5],47.5 µM
same,TGI,[5],> 100 µM
same,GI50,[6],85.1 µM
same,TGI,[6],> 100 µM
same,GI50,[7],96.4 µM
same,TGI,[7],> 100 µM
same,GI50,[8],36.2 µM
same,TGI,[8],> 100 µM
same,GI50,[9],39 µM
same,TGI,[9],> 100 µM
same,GI50,[10],48.8 µM
same,TGI,[10],> 100 µM
same,GI50,[11],> 100 µM
same,TGI,[11],> 100 µM
same,GI50,[12],37.3 µM
same,TGI,[12],> 100 µM
same,GI50,[13],59.1 µM
same,TGI,[13],> 100 µM
same,GI50,[14],> 100 µM
same,TGI,[14],> 100 µM
same,GI50,[15],27.3 µM
same,TGI,[15],55.9 µM
same,GI50,[16],37.9 µM
same,TGI,[16],> 100 µM
same,GI50,[17],55.4 µM
same,TGI,[17],> 100 µM
same,GI50,[18],86.6 µM
same,TGI,[18],> 100 µM
same,GI50,[19],> 100 µM
same,TGI,[19],> 100 µM
same,GI50,[20],29.5 µM
same,TGI,[20],85.6 µM
same,GI50,[21],25.8 µM
same,TGI,[21],62.6 µM
same,GI50,[22],> 100 µM
same,TGI,[22],> 100 µM
same,GI50,[23],40.3 µM
same,TGI,[23],> 100 µM
same,GI50,[24],57.3 µM
same,TGI,[24],> 100 µM
same,GI50,[25],> 100 µM
same,TGI,[25],> 100 µM
same,GI50,[26],86.3 µM
same,TGI,[26],> 100 µM
same,GI50,[27],60.2 µM
same,TGI,[27],> 100 µM
same,GI50,[28],21.9 µM
same,TGI,[28],53.1 µM
same,GI50,[29],63.9 µM
same,TGI,[29],> 100 µM
same,GI50,[30],67.7 µM
same,TGI,[30],> 100 µM
same,GI50,[31],56.5 µM
same,TGI,[31],> 100 µM
same,GI50,[32],31.1 µM
same,TGI,[32],> 100 µM
same,GI50,[33],97.4 µM
same,TGI,[33],> 100 µM
same,GI50,[34],> 100 µM
same,TGI,[34],> 100 µM
same,GI50,[35],17 µM
same,TGI,[35],58.4 µM
same,GI50,[36],77.6 µM
same,TGI,[36],> 100 µM
same,GI50,[37],30.9 µM
same,TGI,[37],64.5 µM
same,GI50,[38],47.5 µM
same,TGI,[38],> 100 µM
same,GI50,[39],21.1 µM
same,TGI,[39],41.5 µM
same,GI50,[40],> 100 µM
same,TGI,[40],> 100 µM
same,GI50,[41],94.4 µM
same,TGI,[41],> 100 µM
same,GI50,[42],> 100 µM
same,TGI,[42],> 100 µM
same,GI50,[43],55.3 µM
same,TGI,[43],> 100 µM
same,GI50,[44],70.8 µM
same,TGI,[44],> 100 µM
same,GI50,[45],29.9 µM
same,TGI,[45],> 100 µM
same,GI50,[46],84.6 µM
same,TGI,[46],> 100 µM
same,GI50,[47],35 µM
same,TGI,[47],> 100 µM
same,GI50,[48],21.4 µM
same,TGI,[48],61 µM
same,GI50,[49],41.5 µM
same,TGI,[49],> 100 µM
same,GI50,[50],13.4 µM
same,TGI,[50],40.7 µM
same,GI50,[51],32.4 µM
same,TGI,[51],> 100 µM
same,GI50,[52],> 100 µM
same,TGI,[52],> 100 µM
same,GI50,[53],48.9 µM
same,TGI,[53],> 100 µM
same,GI50,[54],37.6 µM
same,TGI,[54],> 100 µM
same,GI50,[55],> 100 µM
same,TGI,[55],> 100 µM
same,GI50,[56],> 100 µM
same,TGI,[56],> 100 µM
COc1cc(/C=C/C(=O)c2ccc(Nc3nc(NCCO)nc(N4CCOCC4)n3)cc2)cc(OC)c1OC,GI50,[1],1.59 µM
same,TGI,[1],4.11 µM
same,GI50,[2],1.54 µM
same,TGI,[2],3.2 µM
same,GI50,[6],1.17 µM
same,TGI,[6],2.77 µM
same,GI50,[9],1.88 µM
same,TGI,[9],5.54 µM
same,GI50,[57],1.61 µM
same,TGI,[57],7.4 µM
same,GI50,[12],1.8 µM
same,TGI,[12],6.68 µM
same,GI50,[13],1.71 µM
same,TGI,[13],3.73 µM
same,GI50,[14],3.05 µM
same,TGI,[14],27.5 µM
same,GI50,[15],2.09 µM
same,TGI,[15],11 µM
same,GI50,[16],0.783 µM
same,TGI,[16],7.56 µM
same,GI50,[19],1.43 µM
same,TGI,[19],4.4 µM
same,GI50,[21],1.19 µM
same,TGI,[21],4.37 µM
same,GI50,[23],1.65 µM
same,TGI,[23],5.46 µM
same,GI50,[24],1.32 µM
same,TGI,[24],5.01 µM
same,GI50,[25],1.79 µM
same,TGI,[25],4.78 µM
same,GI50,[26],2.15 µM
same,TGI,[26],5.18 µM
same,GI50,[27],1.76 µM
same,TGI,[27],3.28 µM
same,GI50,[28],2.83 µM
same,TGI,[28],> 100 µM
same,GI50,[29],1.63 µM
same,TGI,[29],3.16 µM
same,GI50,[31],1.69 µM
same,TGI,[31],4.26 µM
same,GI50,[32],2.18 µM
same,TGI,[32],> 100 µM
same,GI50,[33],1.58 µM
same,TGI,[33],3.47 µM
same,GI50,[35],2.2 µM
same,TGI,[35],> 100 µM
same,GI50,[38],1.9 µM
same,TGI,[38],4.59 µM
same,GI50,[39],2.14 µM
same,TGI,[39],7.18 µM
same,GI50,[41],0.422 µM
same,TGI,[41],3.22 µM
same,GI50,[58],1.35 µM
same,TGI,[58],2.86 µM
same,GI50,[44],1.8 µM
same,TGI,[44],3.3 µM
same,GI50,[45],3.03 µM
same,TGI,[45],> 100 µM
same,GI50,[46],0.935 µM
same,TGI,[46],3.54 µM
same,GI50,[47],2.03 µM
same,TGI,[47],5.17 µM
same,GI50,[48],1.95 µM
same,TGI,[48],5.61 µM
same,GI50,[49],1.3 µM
same,TGI,[49],3 µM
same,GI50,[50],1.46 µM
same,TGI,[50],3.23 µM
same,GI50,[51],1.38 µM
same,TGI,[51],2.97 µM
same,GI50,[54],2.72 µM
same,TGI,[54],7.75 µM
